Assay results reported in patent US11135320B2, “Radioligands for pretargeted pet imaging and methods of their therapeutic use” (priority 2015, dated 2021).
Where “and” joins values, the source holds several entries; their conditions need not be identical. Equal values may be shown once.

Assay: Dosimetry calculations (OLINDA) for huA33-based PET imaging strategies
Design: species or system human (70-kg Standard Man model, from mouse biodistribution)
Conditions: pretargeting
Description: The radiation dosimetry of ^64Cu-Tz-SarAr was performed to ensure the selective delivery of radioisotopes to malignant tissues at radiation doses below the doses of traditional radioimmunoconjugates. To this end, dosimetry calculations were performed using the biodistribution data collected and the OLINDA computer program to determine the mean organ absorbed doses (rad/mCi) and effective dose (rem/mCi) for each strategy (Table 23). The total effective dose of the ^64Cu-Tz-SarAr pretargeting strategy with a 24 h interval period was 0.041 rem/mCi, a slight reduction compared to the 0.046 rem/mCi effective dose created by ^64Cu-Tz-NOTA. This difference was due to the significant reduction in the mean organ absorbed dose to the large intestine. Moreover, the total effective dose of the ^64Cu-Tz-SarAr pretargeting strategy was inversely proportional to the duration of the accumulation interval. For example, the effective dose decreased from 0.041 rem/mCi with a 24 h interval to 0.038 rem/mCi with a 48 h interval to 0.034 with a 120 h interval.
Mouse biodistribution data were expressed as normal-organ mean standard uptake values (SUVs) versus time post-administration. In first order, that SUVs were independent of body mass and thus the same among species, the mean SUV in mouse organ i, SUVOrgan i|Mouse, was converted to the fraction of the injected dose in each human organ I, FIDOrgan I|Human, using the following formula:
[formula] and the organ and total-body masses of the 70-kg Standard Man anatomic model. […] The cumulated activity, or residence time, in human organ i, μCi, in μCi h/μCi, was then calculated by analytically integrating the time-activity function in organ i, replacing the biological clearance constant, (λbλj, for each component j of the fitted exponential function with the corresponding effective clearance constant, (λeλj=(λbλj+λp, where λp is the physical decay constant of the radionuclide. The resulting organ residence times were entered into the OLINDA computer program to yield the mean organ absorbed doses and effective dose in rad/mCi and rem/mCi, respectively. Statistical Analysis

NC12CNCCNCC(NCc3ccc(CNC(=O)CCCC(=O)NCc4ccc(-c5nncnn5)cc4)cc3)(CNCCNC1)CNCCNC2.[64Cu+2] [^64Cu-Tz-SarAr]
Brain absorbed dose (24 h interval): 0.0361 rad/mCi | Breasts absorbed dose (24 h interval): 0.0323 rad/mCi | Effective Dose (24 h interval): 0.041 rem/mCi and 0.0414 rem/mCi | Heart Wall absorbed dose (24 h interval): 0.0427 rad/mCi | Kidneys absorbed dose (24 h interval): 0.0661 rad/mCi | Lower Lg. Int. Wall absorbed dose (24 h interval): 0.0482 rad/mCi | Osteogenic Cells absorbed dose (24 h interval): 0.0893 rad/mCi | Ovaries absorbed dose (24 h interval): 0.0401 rad/mCi | Pancreas absorbed dose (24 h interval): 0.0395 rad/mCi | Skin absorbed dose (24 h interval): 0.0297 rad/mCi | Small Intestine absorbed dose (24 h interval): 0.0418 rad/mCi | Spleen absorbed dose (24 h interval): 0.0370 rad/mCi | Stomach Wall absorbed dose (24 h interval): 0.0552 rad/mCi | Testes absorbed dose (24 h interval): 0.0345 rad/mCi | Thymus absorbed dose (24 h interval): 0.0349 rad/mCi | Upper Lg. Int. Wall absorbed dose (24 h interval): 0.0409 rad/mCi | Uterus absorbed dose (24 h interval): 0.0410 rad/mCi | Effective Dose (48 h interval): 0.038 rem/mCi and 0.0377 rem/mCi | Kidneys absorbed dose (48 h interval): 0.0539 rad/mCi | Pancreas absorbed dose (48 h interval): 0.0364 rad/mCi | Spleen absorbed dose (48 h interval): 0.0205 rad/mCi | Stomach Wall absorbed dose (48 h interval): 0.0422 rad/mCi | Uterus absorbed dose (48 h interval): 0.0383 rad/mCi | Effective Dose (120 h interval): 0.034 rem/mCi and 0.0341 rem/mCi | Heart Wall absorbed dose (120 h interval): 0.0330 rad/mCi | Kidneys absorbed dose (120 h interval): 0.0566 rad/mCi | Lungs absorbed dose (120 h interval): 0.0216 rad/mCi | Osteogenic Cells absorbed dose (120 h interval): 0.0720 rad/mCi | Spleen absorbed dose (120 h interval): 0.0225 rad/mCi
